Measured values from the NIST ThermoML archive (doi:10.1021/je0501991).
± gives the expanded uncertainty stated by the source.

Assays:
[1] = xn = mol fraction of the nth substance listed; settings: 308.15 K, 101.33 kPa, Liquid
[2] = molar heat capacity at constant pressure; xn = mol fraction of the nth substance listed; settings: Liquid
[3] = refractive index (Na D-line) (dimensionless); xn = mol fraction of the nth substance listed; settings: 308.15 K, 101.33 kPa, Liquid, Standard Abbe refractometry
[4] = excess molar enthalpy (molar enthalpy of mixing); xn = mol fraction of the nth substance listed; settings: 308.15 K, 101.33 kPa, Liquid

OCCCc1ccccc1 [3-phenyl-1-propanol] + C[S+](C)[O-]
Settings | excess molar enthalpy [kJ/mol] | mass density [kg/m3] | refractive index | viscosity [mPa·s]
[1], x2 = 0.0936 | – | 996.28 ± 0.49 | – | 8.592 ± 0.14
[1], x2 = 0.1499 | – | 999.45 ± 0.47 | – | 7.792 ± 0.12
[1], x2 = 0.277 | – | 1007.07 ± 0.42 | – | 6.19 ± 0.097
[1], x2 = 0.3915 | – | 1014.73 ± 0.39 | – | 5.032 ± 0.079
[1], x2 = 0.4564 | – | 1019.55 ± 0.37 | – | 4.488 ± 0.07
[1], x2 = 0.578 | – | 1029.68 ± 0.34 | – | 3.629 ± 0.056
[1], x2 = 0.6526 | – | 1036.85 ± 0.32 | – | 3.18 ± 0.048
[1], x2 = 0.7233 | – | 1044.45 ± 0.32 | – | 2.801 ± 0.042
[1], x2 = 0.7879 | – | 1052.21 ± 0.31 | – | 2.487 ± 0.038
[1], x2 = 0.8512 | – | 1060.69 ± 0.31 | – | 2.208 ± 0.033
[1], x2 = 0.9027 | – | 1068.4 ± 0.32 | – | 1.993 ± 0.03
[1], x2 = 0.9543 | – | 1076.93 ± 0.33 | – | 1.801 ± 0.027
[3], x2 = 0.0936 | – | – | 1.5188 ± 0.0007 | –
[3], x2 = 0.1499 | – | – | 1.5172 ± 0.0007 | –
[3], x2 = 0.277 | – | – | 1.5132 ± 0.0007 | –
[3], x2 = 0.3915 | – | – | 1.509 ± 0.0007 | –
[3], x2 = 0.4564 | – | – | 1.5063 ± 0.0007 | –
[3], x2 = 0.578 | – | – | 1.5008 ± 0.0007 | –
[3], x2 = 0.6526 | – | – | 1.4969 ± 0.0007 | –
[3], x2 = 0.7233 | – | – | 1.4931 ± 0.0007 | –
[3], x2 = 0.7879 | – | – | 1.489 ± 0.0007 | –
[3], x2 = 0.8512 | – | – | 1.4847 ± 0.0007 | –
[3], x2 = 0.9027 | – | – | 1.4811 ± 0.0007 | –
[3], x2 = 0.9543 | – | – | 1.4771 ± 0.0007 | –
[4], x2 = 0.0737 | -0.227 ± 0.005 | – | – | –
[4], x2 = 0.1373 | -0.344 ± 0.007 | – | – | –
[4], x2 = 0.1927 | -0.398 ± 0.008 | – | – | –
[4], x2 = 0.2414 | -0.429 ± 0.009 | – | – | –
[4], x2 = 0.3232 | -0.422 ± 0.009 | – | – | –
[4], x2 = 0.389 | -0.396 ± 0.008 | – | – | –
[4], x2 = 0.4885 | -0.333 ± 0.007 | – | – | –
[4], x2 = 0.56 | -0.27 ± 0.006 | – | – | –
[4], x2 = 0.6563 | -0.177 ± 0.004 | – | – | –
[4], x2 = 0.7413 | -0.09 ± 0.003 | – | – | –
[4], x2 = 0.7925 | -0.048 ± 0.002 | – | – | –
[4], x2 = 0.8514 | -0.013 ± 0.002 | – | – | –
[4], x2 = 0.8843 | 0.007 ± 0.002 | – | – | –
[4], x2 = 0.9162 | 0.014 ± 0.002 | – | – | –
[4], x2 = 0.9386 | 0.018 ± 0.002 | – | – | –
[4], x2 = 0.9582 | 0.017 ± 0.002 | – | – | –
[4], x2 = 0.9787 | 0.011 ± 0.002 | – | – | –

molar heat capacity at constant pressure [J/K/mol], [2], 101 kPa
Settings | 298.15 K | 308.15 K | 318.15 K
x2 = 0 | 276.3 ± 22 | 284.1 ± 23 | 291.8 ± 23
x2 = 0.0905 | 259.9 ± 21 | 265.7 ± 21 | 273 ± 22
x2 = 0.1204 | 250.3 ± 20 | 256 ± 20 | 262.8 ± 21
x2 = 0.1712 | 243.4 ± 20 | 249.7 ± 20 | 256.2 ± 20
x2 = 0.3375 | 211.1 ± 17 | 215.5 ± 17 | 220 ± 18
x2 = 0.452 | 196.9 ± 16 | 200 ± 16 | 203.5 ± 16
x2 = 0.5571 | 185.1 ± 15 | 187.5 ± 15 | 190.7 ± 15
x2 = 0.6101 | 185.8 ± 15 | 188.7 ± 15 | 191.4 ± 15
x2 = 0.6567 | 177 ± 14 | 178.3 ± 14 | 180.9 ± 14
x2 = 0.7396 | 165.6 ± 13 | 167.2 ± 13 | 170 ± 14
x2 = 0.806 | 162.2 ± 13 | 163.9 ± 13 | 165.4 ± 13
x2 = 0.8718 | 159.2 ± 13 | 160.5 ± 13 | 161.9 ± 13
x2 = 0.9487 | 148.5 ± 12 | 149.3 ± 12 | 151.3 ± 12

OCc1ccccc1 [benzenemethanol] + C[S+](C)[O-]
Settings | excess molar enthalpy [kJ/mol] | mass density [kg/m3] | refractive index | viscosity [mPa·s]
[1], x2 = 0.0641 | – | 1037.17 ± 0.26 | – | 3.957 ± 0.06
[1], x2 = 0.1255 | – | 1040.32 ± 0.27 | – | 3.787 ± 0.057
[1], x2 = 0.2283 | – | 1045.4 ± 0.27 | – | 3.49 ± 0.053
[1], x2 = 0.3275 | – | 1050.05 ± 0.28 | – | 3.201 ± 0.048
[1], x2 = 0.4152 | – | 1054.07 ± 0.29 | – | 2.949 ± 0.044
[1], x2 = 0.5117 | – | 1058.52 ± 0.3 | – | 2.686 ± 0.04
[1], x2 = 0.5942 | – | 1062.41 ± 0.3 | – | 2.477 ± 0.037
[1], x2 = 0.6646 | – | 1065.87 ± 0.31 | – | 2.306 ± 0.035
[1], x2 = 0.7406 | – | 1069.8 ± 0.31 | – | 2.134 ± 0.032
[1], x2 = 0.8125 | – | 1073.74 ± 0.32 | – | 1.988 ± 0.03
[1], x2 = 0.8745 | – | 1077.57 ± 0.33 | – | 1.858 ± 0.028
[1], x2 = 0.9388 | – | 1081.3 ± 0.33 | – | 1.748 ± 0.026
[3], x2 = 0.0641 | – | – | 1.5328 ± 0.0007 | –
[3], x2 = 0.1255 | – | – | 1.5297 ± 0.0007 | –
[3], x2 = 0.2283 | – | – | 1.5252 ± 0.0007 | –
[3], x2 = 0.3275 | – | – | 1.5204 ± 0.0007 | –
[3], x2 = 0.4152 | – | – | 1.5157 ± 0.0007 | –
[3], x2 = 0.5117 | – | – | 1.5099 ± 0.0007 | –
[3], x2 = 0.5942 | – | – | 1.5048 ± 0.0007 | –
[3], x2 = 0.6646 | – | – | 1.4998 ± 0.0007 | –
[3], x2 = 0.7406 | – | – | 1.4946 ± 0.0007 | –
[3], x2 = 0.8125 | – | – | 1.4891 ± 0.0007 | –
[3], x2 = 0.8745 | – | – | 1.4838 ± 0.0007 | –
[3], x2 = 0.9388 | – | – | 1.4785 ± 0.0007 | –
[4], x2 = 0.0571 | -0.476 ± 0.009 | – | – | –
[4], x2 = 0.108 | -0.811 ± 0.015 | – | – | –
[4], x2 = 0.1537 | -1.04 ± 0.019 | – | – | –
[4], x2 = 0.195 | -1.22 ± 0.022 | – | – | –
[4], x2 = 0.2666 | -1.39 ± 0.025 | – | – | –
[4], x2 = 0.3264 | -1.5 ± 0.027 | – | – | –
[4], x2 = 0.4209 | -1.5 ± 0.027 | – | – | –
[4], x2 = 0.492 | -1.42 ± 0.026 | – | – | –
[4], x2 = 0.5924 | -1.27 ± 0.023 | – | – | –
[4], x2 = 0.6856 | -1.03 ± 0.019 | – | – | –
[4], x2 = 0.744 | -0.841 ± 0.016 | – | – | –
[4], x2 = 0.8135 | -0.613 ± 0.012 | – | – | –
[4], x2 = 0.8532 | -0.495 ± 0.01 | – | – | –
[4], x2 = 0.8971 | -0.345 ± 0.007 | – | – | –
[4], x2 = 0.9208 | -0.257 ± 0.006 | – | – | –
[4], x2 = 0.9457 | -0.164 ± 0.004 | – | – | –
[4], x2 = 0.9721 | -0.088 ± 0.003 | – | – | –

molar heat capacity at constant pressure [J/K/mol], [2], 101.33 kPa
Settings | 298.15 K | 308.15 K | 318.15 K
x2 = 0 | 200.4 ± 16 | 203.9 ± 16 | 207.2 ± 17
x2 = 0.08706 | 196.4 ± 16 | 201.5 ± 16 | 206.4 ± 16
x2 = 0.1439 | 189.3 ± 15 | 193.7 ± 16 | 198.6 ± 16
x2 = 0.2708 | 168.3 ± 14 | 172.9 ± 14 | 177 ± 14
x2 = 0.3817 | 167 ± 13 | 170.3 ± 14 | 174.1 ± 14
x2 = 0.4964 | 162.3 ± 13 | 164.4 ± 13 | 166.7 ± 13
x2 = 0.5422 | 160.1 ± 13 | 162.4 ± 13 | 164.9 ± 13
x2 = 0.5966 | 159.3 ± 13 | 161.5 ± 13 | 163.6 ± 13
x2 = 0.6863 | 146.6 ± 12 | 149.1 ± 12 | 150.8 ± 12
x2 = 0.7711 | 146.9 ± 12 | 148.1 ± 12 | 149.8 ± 12
x2 = 0.8577 | 149.7 ± 12 | 151.2 ± 12 | 152.5 ± 12
x2 = 0.9237 | 149 ± 12 | 150.2 ± 12 | 151.4 ± 12
x2 = 0.9508 | 146.4 ± 12 | 147.6 ± 12 | 148.8 ± 12
